These results are taken from PMC4964431, “Discovery of a Potential HER2 Inhibitor from Natural Products for the Treatment of HER2-Positive Breast Cancer” (International Journal of Molecular Sciences, 2016).

A word on the IC50: it is the concentration that gives 50% inhibition.

One data set has as its target T1, HER2 kinase (Homo sapiens, UniProt P04626).
T1 construct: purchased Invitrogen PV3366
Kind of data set: In vitro HER2 kinase inhibition assay (Invitrogen kit PV3366). Format: biochemical. As to conditions: HER2 0.20 μg/mL, mean ± SD, read-out: Enzymatic IC50. The method, then: The compounds were tested for HER2 kinase inhibition abilities using an HER2 assay kit (Invitrogen, Carlsbad, CA, USA, PV3366). The kinase kit was obtained from Invitrogen; all compounds were purchased from Thermo Electron Corporation (Walthan, MA, USA). The concentrations of HER2 were set as 0.20 μg/mL. The concentration of selected compounds was set as six gradients (0.0001–10 μM) in DMSO. Firstly, 2.5 μL of ATP solution and 2.5 μL of compound solution was added to the 5.0 μL substrate peptide. Then, the mixture solution on the plate was incubated for 1 h at 25 °C. Next, 5 μL of development solution was added to the well, and the plate was incubated for 1 h at 25 °C. To terminate the reaction, 5 μL of stop reagent was added to plate. The Infinite M100 Pro multi-label reader (Tecan, Männedorf, Switzerland) was used to measure the activity. Graph Pad Prism 5.0 (Graph Pad Software, San Diego, CA, USA) was used to calculate the IC50 values.

The test system of data set [1] is HER2-overexpressing BT474 cell line. Kind of data set: Cell proliferation inhibition, CCK-8. It is filed as cell-based. The settings on record: Homo sapiens, BT-474; BT474, 48 h, CCK-8, mean ± SD. The method, then:
(§1) All cells were obtained from ATCC (Manassas, VA, USA). The HER2-overexpression SKBR3 cell line and BT474 cell line were cultured in RPMI (Roswell Park Memorial Institute medium) 1640 medium and supplemented with 10% FBS (fetal bovine serum). In addition, 100 U/mL of Penicillin and Streptomycin were added. The cell cultures were maintained at 37 °C in a humidified atmosphere of 5% CO2. Cells were seeded at density 2 × 10^4/mL in 96-well plates per well. The medium was removed after seeding 24 h. The compounds were dissolved in DMSO (dimethyl sulfoxide) and diluted with medium to different concentrations. Then, 20 µL of the selected compounds solution were added in 96-well plates, and incubation continued for 48 h at 37 °C in a humidified atmosphere of 5% CO2. After that, the medium was removed, 90 µL of fresh medium and 10 μL of CCK-8 [54] (Dojindo Molecular Technologies Inc., Kumamoto, Japan) was added to each well and incubated for additional half hour. The activity was measured by microplate reader. Graph Pad Prism 5.0 was used to calculated the IC50 values. The normal breast cells (Hs578Bst) were cultured the same as SKBR3 cells. Cell viability was measured by the CCK-8 assay as previously described.

For data set [2], the system named is HER2-overexpressing SKBR3 cell line. Kind of data set: Cell proliferation inhibition, CCK-8. It is filed as cell-based. The settings on record: Homo sapiens, SK-BR-3; SKBR3, 48 h, CCK-8, mean ± SD. How it is done:
as §1

In data set [3] the test system is normal breast cells (Hs578Bst). The experiment in a line: Normal breast cell viability, CCK-8. It is filed as cell-based. As to conditions: different concentrations, 24 h of treatment. How it is done: Three compounds (cell inhibition IC50 values < 50 μM) were further tested on the normal breast cell (Hs578Bst) to study the effect on cell proliferation and thus verify the toxicity of normal cells. CCK-8 (Cell Counting kit-8) assays were utilized to determine the effects of different concentrations of three compounds on normal breast cell viability after 24 h of treatment.
as §1

Entries after “also recorded” stand apart in the source; their conditions may differ.

T1 sequence (P04626 23-1255): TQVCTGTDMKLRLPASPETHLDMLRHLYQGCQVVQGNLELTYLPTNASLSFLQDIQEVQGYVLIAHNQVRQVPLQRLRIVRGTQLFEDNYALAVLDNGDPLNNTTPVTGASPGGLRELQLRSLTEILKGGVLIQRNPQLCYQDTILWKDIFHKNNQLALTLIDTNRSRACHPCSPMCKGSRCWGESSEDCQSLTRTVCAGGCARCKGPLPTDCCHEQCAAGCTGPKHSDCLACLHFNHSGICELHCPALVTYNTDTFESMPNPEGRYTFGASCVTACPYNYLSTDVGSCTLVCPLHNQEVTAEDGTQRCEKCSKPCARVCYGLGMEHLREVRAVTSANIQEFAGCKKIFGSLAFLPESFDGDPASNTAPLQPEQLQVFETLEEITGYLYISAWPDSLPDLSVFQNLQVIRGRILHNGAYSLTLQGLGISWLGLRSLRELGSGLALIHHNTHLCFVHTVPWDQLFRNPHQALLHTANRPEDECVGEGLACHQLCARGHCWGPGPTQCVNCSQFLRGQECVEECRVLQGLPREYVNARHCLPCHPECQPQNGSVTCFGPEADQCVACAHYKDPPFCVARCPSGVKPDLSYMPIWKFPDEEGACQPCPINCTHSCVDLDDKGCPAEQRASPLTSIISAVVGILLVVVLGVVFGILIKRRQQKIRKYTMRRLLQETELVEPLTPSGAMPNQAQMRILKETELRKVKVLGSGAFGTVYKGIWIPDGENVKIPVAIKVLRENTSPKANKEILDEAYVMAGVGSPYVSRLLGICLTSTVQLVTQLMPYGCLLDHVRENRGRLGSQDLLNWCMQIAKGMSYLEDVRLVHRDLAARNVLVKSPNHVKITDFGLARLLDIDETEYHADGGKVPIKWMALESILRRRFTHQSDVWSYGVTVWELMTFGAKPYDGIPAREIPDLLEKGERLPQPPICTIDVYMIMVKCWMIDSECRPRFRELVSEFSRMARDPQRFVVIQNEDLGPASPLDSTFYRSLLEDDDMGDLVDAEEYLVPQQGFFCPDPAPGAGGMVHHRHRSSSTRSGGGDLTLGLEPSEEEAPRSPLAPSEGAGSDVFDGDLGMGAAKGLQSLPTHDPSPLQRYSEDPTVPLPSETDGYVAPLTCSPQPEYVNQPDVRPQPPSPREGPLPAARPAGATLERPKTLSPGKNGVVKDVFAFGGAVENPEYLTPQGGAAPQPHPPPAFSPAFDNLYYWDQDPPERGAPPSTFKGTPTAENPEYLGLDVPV

Turning to `CC(C)=CCC/C(C)=C/Cc1c(O)cc2c(c1O)C(=O)[C@H](O)[C@@H](c1ccc(O)cc1)O2` [ZINC13378641, (2R,3R)-6-[(2E)-3,7-dimethylocta-2,6-dienyl]-3,5,7-trihydroxy-2-(4-hydroxyphenyl)chroman-4-one], the IC50 worked out at 3.71 ± 0.03 µM at HER2 kinase, 18.6 ± 2.06 µM in data set [1] and 26.5 ± 1.62 µM in data set [2]. Besides, the “cytotoxicity against normal breast cells (cell viability)” value (“cytotoxicity” below) is recorded as “little cytotoxicity” in data set [3] and “low cytotoxicity” in data set [3] (listed as ZINC31178641).
Turning to `CC(C)=CCC/C(C)=C/Cc1c(O)cc2c(c1O)C(=O)CC(c1ccc(O)c(O)c1)O2` (stereo not drawn) [ZINC15122021, 2-(3,4-dihydroxyphenyl)-6-[(2E)-3,7-dimethylocta-2,6-dienyl]-5,7-dihydroxy-2,3-dihydrochromen-4-one], the IC50 on HER2 kinase is 0.18 ± 0.002 µM; in data set [1], 4.11 ± 0.95 µM; in data set [2] it was 1.22 ± 0.05 µM. Further, in data set [3], the “cytotoxicity” value is on record as “little cytotoxicity; also recorded: low cytotoxicity”.
For the molecule `CC(C)=CC[C@@H](O)/C(C)=C/Cc1cc(C(=O)O)cc(C/C=C(\C)CO)c1O` [ZINC31166919, 4-hydroxy-3-[(2E,4R)-4-hydroxy-3,7-dimethyl-octa-2,6-dienyl]-5-[(E)-4-hydroxy-3-methyl-but-2-enyl]be], the IC50 at HER2 kinase worked out at 2.63 ± 0.03 µM; in data set [1] it was 6.78 ± 0.68 µM; in data set [2], 8.61 ± 0.45 µM. For the same molecule, the “cytotoxicity” value in data set [3] is recorded as “slightly enhanced cytotoxicity with increase of concentration”.
Consider `O=C(O)c1cccc(C(=O)CC[C@@H]2O[C@@H](n3cnc4c(=O)[nH]cnc43)[C@@H](O)[C@H]2O)c1` [ZINC35456515, 3-[3-[(2S,3R,4S,5R)-3,4-dihydroxy-5-(6-hydroxypurin-9-yl)tetrahydrofuran-2-yl]propanoyl]benzoic], for which the IC50 at HER2 kinase was greater than 10 µM; in data set [1], greater than 50 µM; in data set [2], greater than 50 µM.
As for `C/C(=C\Cc1cc(C(=O)O)cc(CC[C@H](C)C(=O)/C=C/C(C)(C)O)c1O)CO` [ZINC49181256, 4-hydroxy-3-[(E,3S)-7-hydroxy-3,7-dimethyl-4-oxo-oct-5-enyl]-5-[(E)-4-hydroxy-3-methyl-but-2-enyl]be], the IC50 on HER2 kinase was 9.18 ± 0.01 µM; in data set [1] it was greater than 50 µM; in data set [2], greater than 50 µM.
As to `CS(=O)(=O)CCNCc1ccc(-c2ccc3ncnc(Nc4ccc(OCc5cccc(F)c5)c(Cl)c4)c3c2)o1` [lapatinib, Lapatinib, reference compound], the IC50 in data set [1] came out at 0.45 ± 0.03 µM; in data set [2] it was 0.38 ± 0.02 µM.
